What was measured:
Assay type in all cases: cell-based, mouse
[1] = test system: Erk; assay: phospho-Erk signaling in BMDMs; settings: 1 mM TDMM 24 hours, LPS 1 ug/ml 15 minutes
Method: (§1) The PI3K/Akt and MAPK/Erk signaling pathways regulate many cellular processes including survival, apoptosis, growth, and cytokine production. […] Specifically, BMDMs were treated with indole (1 mM) or DMF control for 18 hours, then stimulated with LPS (10 ug/ml) or CpG (5 uM) for 30 minutes. Cells were stained for phospho-Akt or phospho-Erk and analyzed by flow cytometry.
(§2) The inventors performed a series of assays where bone marrow derived macrophages (BMDMs), bone marrow derived dendritic cells (BMDCs), and splenic dendritic cells (splenic DCs), were exposed to a series of TDMMs, including indole, indole-3-acetate (I3AT), 5-hydroxyindole (5HI), and indole-3-pyruvate (I3P), as well as indole-3-carbinol (I3C; a plant derived compound) to be used for a positive control (1 mM for 24 hours). The BMDMs and BMDCs were stimulated with LPS for 4 hours and assayed at day 7 for expression of various pro-inflammatory cytokines. In a similar assay, the BMDMs and BMDCs were stimulated with LPS or CpG, respectively, for 15 minutes and assayed for pAKT and pERK signaling, which is a reflection of pro-inflammatory response.

[2] = test system: Erk; assay: pERK signaling in BMDCs; settings: 1 mM TDMM 24 hours, CpG (5 uM) 15 minutes
Method: as §2

[3] = test system: IL-12; assay: IL-12 production in BMDCs, intracellular staining, flow cytometry; settings: BMDCs, 1 mM TDMM 24 hours, LPS (1 ug/ml) 4 hours
Method: (§3) Intracellular staining was performed to assess TNF (FIG. 3A) and IL-12 (FIG. 3B) production.
(§4) Briefly, bone marrow was harvested from femurs of mice and cultured for 7 days in the presence of DC-skewing cytokines, GM-CSF and IL-4. […] The pro-inflammatory cytokines, IL-6 and IL-12, were specifically queried. […] Immune cells communicate largely through the production of soluble factors including cytokines, and DCs detect these signals and determine their effector functions accordingly.
as §2

[4] = test system: TNF; assay: TNF production in BMDCs, intracellular staining, flow cytometry; settings: 1 mM TDMM 24 hours, LPS (1 ug/ml) 4 hours
Method: Intracellular staining was performed to assess TNF production.
as §3, §4, §2

[5] = test system: Akt; assay: phospho-Akt signaling in BMDMs; settings: 1 mM TDMM 24 hours, LPS 1 ug/ml 15 minutes
Method: as §1, §2

[6] = test system: Akt; assay: phospho-Akt in BMDCs, flow cytometry; settings: BMDCs, 1 mM TDMM 24 hours, CpG (5 uM) 15 minutes
Method: Flow cytometric analysis was performed on BMDCs conditioned with indole from day 3 of culture and subsequently stimulated with LPS (5 ug/ml) for the given times. Cells were stained for phospho-Akt and analyzed by flow cytometry.
Flow cytometric analysis was performed on BMDCs from WT or AhrKO mice cultured in the presence of indole (1 mM) from day 3. DCs were stimulated with LPS (5 ug/ml) for the given times and stained for phospho-Akt, which was detected by flow cytometry. Percentage of pAkt-positive DCs indicated. Representative data is from one of three independent experiments.
Another central mediator of cellular signaling is the serine/threonine kinase, Akt (also referred to as protein kinase B), which regulates cellular processes including metabolism, growth, proliferation, and survival. The Akt pathway is activated by numerous receptor tyrosine kinases, cytokine receptors, G-protein-coupled receptors, and other molecules which activate the lipid kinase PI3K and result in production of phosphatidylinositol (3,4,5)-trisphosphate (PIPS). This second messenger acts as a docking site at the plasma membrane for Akt where phosphorylation and activation occurs. Akt is located upstream of NF-kB and can induce NF-kB signaling via phosphorylation of IKKα and Tp12. The effect of indole on Akt phosphorylation was assessed to determine whether indole's inhibition of NF-kB might be a secondary effect due to modulation of an upstream target.
as §2

[7] = test system: Stat3; assay: IL-6 induced pSTAT3 signaling in splenic DCs; settings: for IL-6 induced pSTAT3 signaling in splenic DCs: TDMM 24 hours, 10 ng/ml IL-6 30 minutes; for IL-6 induced pSTAT3 expression, CD4+ DCs / IL-6 induced pSTAT3 expression, CD4− DCs: splenic DCs, 1 mM TDMM 24 hours, IL-6 (10 ng/ml) 30 minutes
Method: Briefly, flow cytometric analysis was performed on splenic DCs conditioned with the indicated TDMMs for 24 hours and then subsequently stimulated with 10 ng/ml IL-6 for 30 minutes.

[8] = test system: TNF; assay: TNF production in BMDMs, intracellular staining, flow cytometry; settings: BMDMs, 1 mM TDMM 24 hours, LPS 1 ug/ml 4 hours
Method: (§5) BMDMs were treated with indole or DMF control for 18 hours or 4 hours, followed by stimulation with LPS (2 ug/ml or 250 ng/ml) for 4 hours in the presence of Golgiplug. BMDMs were then stained for intracellular TNF or IL-12 and analyzed by flow cytometry.
(§6) First, pro-inflammatory cytokine production in macrophages was investigated. […] In the DC study described herein, DCs were typically conditioned with indole during their development from bone marrow precursors in order to mimic the proximity of DC progenitor cells to indole in the intestinal microenvironment during development. […] BMDMs were treated for 18 hours with indole, followed by a 4 hour stimulation with either a very high (2 ug/ml) or low (250 ng/ml) dose of LPS.
(§7) Additionally, to determine if recently arrived macrophage precursors might also be affected, BMDMs were next treated for just 4 hours with indole, followed by a […] stimulation with the same LPS concentrations.
(§8) To address the question of indole and AhR dependence in macrophages, experiments using BMDMs derived from AhR-knockout mice were run alongside wild-type littermate controls. Specifically, flow cytometric analysis of BMDMs was performed on WT or AhR-KO mice and treated with indole or DMF control for 18 hours. BMDMs were stimulated for 4 hours with LPS (50 ng/ml) in the presence of Golgiplug, then stained for intracellular TNF (left panels) and IL-12 (right panels).
as §2
(§9) Bone marrow was harvested as described above and cultured at a density of 1×10^6 cells in 10 ml complete media supplemented with 10 ng/ml M-CSF (Peprotech) in 100 mm×15 mm petri dishes. Media with cytokine was replenished on day 3. Adherent and semi-adherent cells were recovered on day 7, plated, and treated with indole prior to downstream experiments.

[9] = test system: IL-12; assay: IL-12 production in BMDMs, intracellular staining, flow cytometry; settings: BMDMs, 1 mM TDMM 24 hours, LPS 1 ug/ml 4 hours
Method: as §5, §6, §7, §8, §2, §9

[10] = test system: CCR9; assay: CCR9 induction on naïve T cells by conditioned DCs; settings: no exogenous RA in the co-culture
Method: FIG. 18 graphically illustrates that indole-conditioned DCs induce CCR9 on naïve T cells upon activation. Naïve CD4+CD25− T cells from OT-II mice were co-cultured with OVA323-339 peptide-loaded BMDCs for 72 hours in the presence of RA as indicated. BMDCs were previously treated with indole, RA, or DMF from day 3. Following 3 days of co-culture, surface staining was performed for flow cytometric analysis.
Based on the observation that indole induces gut homing markers on developing DCs, it was queried whether indole-conditioned DCs could also confer gut homing markers upon naïve CD4+ T cells. The antigen-specific T cell activation model was used to address this question, and a titration of RA was included as a positive control to induce CCR9. […] Just 10 nM of RA enabled indole-DC co-cultures to achieve over 50% of T cells expressing CCR9 which was similar to RA-DC positive controls, whereas DMF-DC co-cultures with the same concentration of RA added achieved only 10% of CCR9+ T cells.
Naïve CD4+CD25− T cells of spleen and lymph nodes from OT-II mice were isolated by negative selection via column purification using the Naïve CD4+ T Cell Isolation Kit (Miltenyi Biotec). Naïve CD4+ T cells (>96% pure) were labeled with Cell Proliferation Dye efluor450 (eBioscience) following manufacturer's instructions then co-cultured with OVA peptide-loaded BMDCs at a ratio of 2:1 for 72 hours in a 96-well round-bottom tissue culture plate. BMDCs were previously treated with indole or RA from day 3. On day 7, DCs were washed extensively prior to being loaded with OVA323-339 peptide (10 ug/ml) for 1 hour at 37° C. BMDCs were then washed three times and plated with naïve CD4+ T cells. RA or TGFβ were added to co-cultures as indicated. Following 3 days of culture, cells were stained with antibodies to CD4, CCR9, and LPAM-1 (α4β7). Intracellular staining for Foxp3 was performed using a Foxp3 staining kit (eBioscience). The remaining CD4+ helper T cell lineages Th1, Th2, and Th17 were identified by their cytokine production. […]

[11] = test system: B220 (CD45R); assay: B220 surface expression on BMDCs; settings: BMDCs cultured from day 3 with indole (1 mM) or retinoic acid (1 μM)
Method: (§10) FIGS. 12A and 12B graphically illustrate that indole induces CCR9 and B220 on DCs. BMDCs were cultured in the presence of indole (1 mM), retinoic acid (1 μM), or DMF solvent control from day 3. On day 7, DCs were surface stained for expression of CCR9 and B220 and analyzed by flow cytometry. […] Mean of three independent experiments. * indicates p<0.05 for one-way ANOVA followed by Dunnett's post-test.
An indole-induced upregulation of the B220 (CD45R) antigen was also observed (FIGS. 12A and 12B), which is widely used to distinguish the plasmacytoid DC lineage and is believed to contribute to gut homing. However, more recently B220 has been reported to distinguish a DC subset more closely developmentally related to conventional rather than plasmacytoid DCs and a precursor to resident CD8+ and CD8− conventional DCs.

[12] = test system: naïve CD4+CD25− T cells; assay: DC-T cell co-culture without cell contact (Transwell): Treg induction; settings: exogenous TGF-β added, 3 days
Method: Transwell tissue culture plates were used to perform co-cultures with a physical barrier between the two cell types. Naïve CD4+CD25− T cells were FACS-sorted and placed in the bottom of a 24-well Transwell cell culture plate with 0.4 uM polycarbonate membranes that had been coated with α-CD3 (5 ug/ml) and α-CD28 (2 ug/ml). TGF-β was added at the indicated concentrations. […] The T cell to DC ratio was 2:1, as in other co-culture experiments. After 3 days, T cells were stained for Foxp3 and analyzed by flow cytometry.
Naïve CD4+CD25− T cells were FACS-sorted and placed in the bottom of a 24-well Transwell cell culture plate with 0.4 uM polycarbonate membranes (Corning) that had been coated with 5 μg/mL αCD3 (BioXcell 145-2C11) and 2 μg/mL αCD28 (BioXcell 37.51). TGF-β was added at the indicated concentrations. The insert was placed in the well and washed, Day 3-treated BMDCs were added to the top chamber such that culture media was shared, but the cell types were kept physically separate. The T cell to DC ratio was 2:1, as in other co-culture experiments.

[13] = test system: CCR9; assay: CCR9 surface expression on BMDCs; settings: BMDCs cultured from day 3 with indole (1 mM) or retinoic acid (1 μM), day 7
Method: as §10
Dendritic cell subsets bear numerous surface antigens that regulate their migration and localization. Because indole is produced in the gut and appears to induce anti-inflammatory properties in DCs (as described above), it was hypothesized that indole might affect migration and retention in mucosal tissues. Thus, expression of the gut homing marker, chemokine receptor CCR9 was investigated. […] Retinoic acid (RA) was included as a positive control. RA is present in murine plasma at approximately […] and is predicted to exist at higher concentrations in tissue microenvironments in vivo. Thus, 1 uM was used as a conservative estimate of relevant physiological concentration. Indole's effect was even more profound than that of retinoic acid, a known inducer of mucosal homing markers on T cells (see, e.g., Iwata M, et al. (2004) Retinoic Acid Imprints Gut-Homing Specificity on T Cells. Immunity 21(4):527-538). […]

[14] = test system: naïve CD4+CD25− T cells; assay: T cell activation in the presence of BMDC supernatant: Treg induction; settings: T cells on α-CD3/α-CD28 plates, 72 hours
Method: Specifically, naïve CD4+CD25− T cells were FACS-sorted and plated in 96-well, α-CD3 and α-CD28-coated tissue culture plates in a volume of 100 ul cell culture media. […] T cells with DC supernatant were cultured for 72 hours in the presence or absence of exogenous TGF-β. Subsequently, cells were stained for the transcription factor Foxp3 and analyzed by flow cytometry.
Naïve CD4+CD25− T cells were FACS-sorted as described above and plated in 96-well, αCD3 and αCD28-coated tissue culture plates in a volume of 100 ul cell culture media. An equal volume of spent BMDC supernatant was added, in the presence or absence of exogenous TGF-β, and T cells were cultured for 72 hours. To generate supernatants, day 3-treated BMDCs were collected on day 7, washed extensively and plated in a 48-well cell culture plate at 5×10^5 cells per well in 500 ul fresh complete media for 24 hours in the presence or absence of 1 ug/ml LPS. Plates were then centrifuged and supernatants were collected, filtered, and stored at −20° C. until use.

Oc1ccc2[nH]ccc2c1 [5HI, 5-hydroxyindole]
pERK [1]: reduced and ↓
pERK [2]: reduced and ↓
IL-12 [3]: reduction and ↓
TNF [4]: reduction and ↓↓
pAKT [5]: reduced and ↓
pAKT [6]: reduced and ↓
IL-6 induced pSTAT3 signaling in splenic DCs [7]: inhibits
IL-6 induced pSTAT3 expression, CD4+ DCs [7]: ↓
IL-6 induced pSTAT3 expression, CD4− DCs [7]: ↓

O=C(O)Cc1c[nH]c2ccccc12 [I3AT, indole-3-acetate]
pERK [1]: No effect
TNF [8]: No effect
pERK [2]: reduced and ↓
IL-12 [3]: reduction and ↓
TNF [4]: reduction and ↓
IL-12 [9]: reduction and ↓
pAKT [5]: No effect
pAKT [6]: reduced and ↓
IL-6 induced pSTAT3 signaling in splenic DCs [7]: inhibits
IL-6 induced pSTAT3 expression, CD4+ DCs [7]: ↓
IL-6 induced pSTAT3 expression, CD4− DCs [7]: ↓

OCc1c[nH]c2ccccc12 [I3C, indole-3-carbinol, reference compound]
pERK [1]: ↓↓↓↓
TNF [8]: ↓↓↓↓
pERK [2]: ↓↓↓↓
IL-12 [3]: ↓↓↓
TNF [4]: ↓↓↓↓
IL-12 [9]: ↓↓↓↓
pAKT [5]: ↓↓
pAKT [6]: ↓↓↓↓
IL-6 induced pSTAT3 expression, CD4+ DCs [7]: ↓↓↓↓
IL-6 induced pSTAT3 expression, CD4− DCs [7]: ↓↓↓↓

O=C(O)C(=O)Cc1c[nH]c2ccccc12 [I3P, indole-3-pyruvate]
pERK [1]: No effect
pERK [2]: reduced and ↓
IL-12 [3]: reduction and ↓
TNF [4]: reduction and ↓
pAKT [5]: No effect
pAKT [6]: reduced and ↓
IL-6 induced pSTAT3 signaling in splenic DCs [7]: inhibits
IL-6 induced pSTAT3 expression, CD4+ DCs [7]: ↓
IL-6 induced pSTAT3 expression, CD4− DCs [7]: ↓

CC1=C(/C=C/C(C)=C/C=C/C(C)=C/C(=O)O)C(C)(C)CCC1 [RA, all-trans retinoic acid, reference compound]
induction of CCR9 on naïve T cells by conditioned BMDCs alone [10]: sufficient
B220 (CD45R) expression on BMDCs [11]: does not induce B220
Treg induction by conditioned DCs without cell contact over solvent controls [12]: 3 fold
surface expression of CCR9 on conditioned DCs [13]: 22%
Treg induction by supernatant of conditioned BMDCs relative to solvent control DCs [14]: approximately 2 fold

Source: patent US11612586B2, “Indole regulation of antigen presenting cells” (THE TEXAS A&M UNIVERSITY SYSTEM, priority 2016, dated 2023)
